# Columns and labels:
# [1] = target: T1, TYK2 (Homo sapiens, UniProt P29597); experiment: HEK-Blue IFNα/β reporter assay (SEAP) for TYK2 pseudokinase inhibition; type: cell-based; conditions: HEK-Blue IFNα/β cells, 1 ng/mL human recombinant IFNα
# Summary of the method: (§1)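 HEK-Blue cells carrying cytokine receptor and STAT3 or STAT1 SEAP reporter, pretreated 60 min with compound, then stimulated with 10 ng/mL IL-23 (22–24 h) or 1 ng/mL IFNα (16–18 h). SEAP read with QUANTI-Blue; IC50 by non-linear regression versus no-inhibitor and unstimulated controls.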
# [2] = system: IFN-γ; experiment: Selectivity assay (SEAP) IFN-γ reporter cells; type: cell-based; conditions: Homo sapiens, IFN-γ reporter cells on HEK293 background, read-out: Selectivity assays (SEAP) nM or E-Max % IFN-γ
# [3] = target: T2, JAK2-JH1 (Homo sapiens, UniProt O60674); experiment: HTRF-based selectivity assay, JAK2 catalytic domain; type: biochemical; conditions: kinase domain (JH1), ATP 14.7 μM
# T2 construct: recombinant purified His or GST-tagged catalytic domain for each enzyme; made in house
# T2 sequence (O60674 849-1124 limits assumed): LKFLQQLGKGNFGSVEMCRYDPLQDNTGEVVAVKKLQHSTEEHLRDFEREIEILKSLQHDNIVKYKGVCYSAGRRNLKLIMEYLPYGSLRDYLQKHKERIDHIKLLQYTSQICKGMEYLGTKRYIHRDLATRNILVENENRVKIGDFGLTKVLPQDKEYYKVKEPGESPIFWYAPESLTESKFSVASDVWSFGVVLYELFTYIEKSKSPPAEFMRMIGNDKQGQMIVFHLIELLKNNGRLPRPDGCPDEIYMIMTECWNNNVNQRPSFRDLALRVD
# Procedure: (§2) The ability of compounds to inhibit the activity of JAK1, JAK2, JAK3 and TYK2 is measured using a recombinant purified His or GST-tagged catalytic domain for each enzyme (JAK1, JAK2 and TYK2 are generated in-house; JAK3 was purchased from Carna biosciences, Cat #08-046) in an HTRF format biochemical assay. The reactions employs a commercial peptide substrate from Cisbio (Cat #62TK0PEC). The basic assay protocol is as follows: first, 2.5 µL of diluted compounds (4×) in DMSO are dispensed into a 384-well Optiplate. Next, 2.5 μL of enzyme (final concentrations for enzymes are: TYK2-700 ng/mL, JAK1-80.6 ng/mL, JAK2-2.1 ng/mL and JAK3-171.8 ng/mL) is added and incubated at RT for 5-20 min. Finally, 5 μl of mixture of 2×ATP [Final concentration 20 μM for TYK2, 21.43 μM for JAK1, 14.7 μM for JAK2 and 2.12 μM for JAK3]+2× Substrate [Final concentration 217 nM for TYK2, 454.7 nM for JAK1, 200 nM for JAK2 and 257.4 nM for JAK3] is added to 384 well Optiplate. Composition of Kinase assay buffer used in the assay is as follows: HEPES 50 mM, EGTA 1 mM, MgCl2 10 mM, DTT2 mM, Tween-20 0.010 and water. Then the plates are shaken and then incubated at 26.5° C. for 60 min. At the end of the incubation, 10 μL of mixture of 2× detection mix [(EU3+Cryptate (1×)+Streptavidin-XL665 (final concentration: 62.5 nM) (HTRF KinEASE-TK kit Cat #62TK0PEC)] is added to the assay plate, shaken and incubated at 26.5° C. for 60 min. Plates are then read on a Perkin Elmer Envision for HTRF signal (665 nm reading/615 nm reading). After normalization to untreated controls, the percent inhibition of the HTRF signal at each compound concentration is calculated. The plot of percent inhibition versus the log of compound concentration is fit with a 4-parameter dose response equation to calculate IC50 values.
# [4] = target: T3, TYK2-JH1 (Homo sapiens, UniProt P29597); experiment: HTRF-based selectivity assay, TYK2 catalytic domain; type: biochemical; conditions: kinase domain (JH1), ATP 20 μM
# T3 construct: recombinant purified His or GST-tagged catalytic domain for each enzyme; made in house
# T3 sequence (P29597 897-1176 limits assumed): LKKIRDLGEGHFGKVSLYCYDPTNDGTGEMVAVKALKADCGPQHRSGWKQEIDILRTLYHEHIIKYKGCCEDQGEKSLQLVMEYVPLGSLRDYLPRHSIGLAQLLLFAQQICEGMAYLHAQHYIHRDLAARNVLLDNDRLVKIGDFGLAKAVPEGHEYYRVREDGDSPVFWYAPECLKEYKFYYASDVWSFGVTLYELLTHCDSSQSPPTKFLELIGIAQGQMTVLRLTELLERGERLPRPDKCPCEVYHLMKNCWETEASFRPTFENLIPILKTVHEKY
# Procedure: as §2
# [5] = target: T1, TYK2; experiment: HEK-Blue IL-23 reporter assay (SEAP) for TYK2 pseudokinase inhibition; type: cell-based; parameters: HEK-Blue™ IL-23 and IFNα/β cells with a stably-integrated cytokine receptor and STAT3 or STAT1; host or cells: HEK-Blue IL-23 / HEK-Blue IFNα/β cells (HEK293 background); conditions: HEK-Blue IL-23 cells, 10 ng/mL human recombinant IL-23, SEAP reporter; read-out: IL23 IC50
# Summary of the method: as §1
# [6] = target: T4, JAK3-JH1 (Homo sapiens, UniProt P52333); experiment: HTRF-based selectivity assay, JAK3 catalytic domain; type: biochemical; conditions: kinase domain (JH1), ATP 2.12 μM
# T4 construct: recombinant purified His or GST-tagged catalytic domain for each enzyme; purchased Carna biosciences 08-046
# T4 sequence (P52333 822-1111 limits assumed): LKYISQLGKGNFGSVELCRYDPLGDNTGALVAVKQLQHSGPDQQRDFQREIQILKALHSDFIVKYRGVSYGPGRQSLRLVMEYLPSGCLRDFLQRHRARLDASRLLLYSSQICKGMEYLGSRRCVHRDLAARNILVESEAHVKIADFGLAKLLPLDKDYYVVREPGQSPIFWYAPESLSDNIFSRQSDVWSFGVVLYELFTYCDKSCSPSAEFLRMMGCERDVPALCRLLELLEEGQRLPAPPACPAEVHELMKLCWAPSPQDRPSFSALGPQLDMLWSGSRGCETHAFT
# Procedure: as §2
# [7] = target: T5, JAK1-JH1 (Homo sapiens, UniProt P23458); experiment: HTRF-based selectivity assay, JAK1 catalytic domain; type: biochemical; conditions: kinase domain (JH1), ATP 21.43 μM
# T5 construct: recombinant purified His or GST-tagged catalytic domain for each enzyme; made in house
# T5 sequence (P23458 875-1153 limits assumed): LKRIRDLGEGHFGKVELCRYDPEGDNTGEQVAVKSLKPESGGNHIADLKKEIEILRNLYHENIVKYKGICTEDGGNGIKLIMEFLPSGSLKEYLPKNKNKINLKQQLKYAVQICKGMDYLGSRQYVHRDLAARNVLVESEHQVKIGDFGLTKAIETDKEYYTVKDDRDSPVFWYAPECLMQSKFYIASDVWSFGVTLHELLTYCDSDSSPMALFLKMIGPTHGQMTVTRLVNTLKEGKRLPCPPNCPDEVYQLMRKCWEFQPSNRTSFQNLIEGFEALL
# Procedure: as §2
# [8] = system: IL-2; experiment: Selectivity assay (SEAP) IL-2 reporter cells; type: cell-based; conditions: Homo sapiens, IL-2 reporter cells on HEK293 background, read-out: Selectivity assays (SEAP) nM or E-Max % IL-2
# T1 sequence (P29597 whole entry): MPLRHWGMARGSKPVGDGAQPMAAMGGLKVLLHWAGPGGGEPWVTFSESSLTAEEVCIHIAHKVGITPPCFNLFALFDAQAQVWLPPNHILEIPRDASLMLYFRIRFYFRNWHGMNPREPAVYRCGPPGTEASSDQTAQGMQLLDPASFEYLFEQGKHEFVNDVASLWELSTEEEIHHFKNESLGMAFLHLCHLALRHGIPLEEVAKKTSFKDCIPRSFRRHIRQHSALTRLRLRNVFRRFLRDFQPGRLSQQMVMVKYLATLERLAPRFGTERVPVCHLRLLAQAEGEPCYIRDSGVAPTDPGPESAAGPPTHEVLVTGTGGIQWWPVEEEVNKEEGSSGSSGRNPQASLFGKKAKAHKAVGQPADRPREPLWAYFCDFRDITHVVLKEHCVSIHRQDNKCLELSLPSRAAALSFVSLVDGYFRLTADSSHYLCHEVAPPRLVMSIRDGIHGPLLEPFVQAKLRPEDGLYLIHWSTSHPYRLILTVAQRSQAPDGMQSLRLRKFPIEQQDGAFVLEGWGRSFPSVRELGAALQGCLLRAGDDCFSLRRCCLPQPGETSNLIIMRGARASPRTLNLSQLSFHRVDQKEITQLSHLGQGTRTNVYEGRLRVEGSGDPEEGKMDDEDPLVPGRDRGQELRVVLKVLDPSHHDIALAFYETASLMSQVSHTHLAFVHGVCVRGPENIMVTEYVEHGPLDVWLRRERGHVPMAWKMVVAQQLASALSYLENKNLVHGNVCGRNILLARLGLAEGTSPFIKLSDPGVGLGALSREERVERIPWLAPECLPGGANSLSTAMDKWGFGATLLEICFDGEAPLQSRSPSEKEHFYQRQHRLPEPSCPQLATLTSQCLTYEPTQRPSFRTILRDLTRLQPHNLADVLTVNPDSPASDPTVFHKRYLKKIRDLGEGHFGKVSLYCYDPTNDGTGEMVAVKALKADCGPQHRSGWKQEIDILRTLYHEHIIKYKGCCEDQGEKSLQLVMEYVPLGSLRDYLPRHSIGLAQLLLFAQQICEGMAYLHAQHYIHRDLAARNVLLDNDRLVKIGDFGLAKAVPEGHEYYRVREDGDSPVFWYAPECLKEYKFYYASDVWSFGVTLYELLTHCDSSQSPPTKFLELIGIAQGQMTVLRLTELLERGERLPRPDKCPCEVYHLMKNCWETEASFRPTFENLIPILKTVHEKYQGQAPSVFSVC
Structure (SMILES),IC50 [1] [µM],IC50 [2] [nM],IC50 [3] [µM],IC50 [4] [µM],IC50 [5] [µM],IC50 [6] [µM],IC50 [7] [µM],IC50 [8] [nM]
"O=c1[nH]n(-c2ccccc2)c2cc(Nc3ccc(F)cn3)ncc12 [Compound I-2, 6-((5-fluoropyridin-2-yl)amino)-1-phenyl-1,2-dihydro-3H-pyrazolo[4,3-c]pyridin-3-one]",< 10,30000 to 90000,10 to 30,30 to 90,< 10,< 10,30 to 90,> 90000
"COc1cccc(-n2[nH]c(=O)c3cnc(Nc4cc(C)nc(C)n4)cc32)c1F [Compound I-37, 6-((2,6-dimethylpyrimidin-4-yl)amino)-1-(2-fluoro-3-methoxyphenyl)-1,2-dihydro-3H-pyrazolo[4,3-c]pyridin-3-one]",< 10,> 90000,> 90,> 90,< 10,> 90,> 90,> 90000
"COc1cccc(-n2[nH]c(=O)c3cnc(Nc4ccnc(C)n4)cc32)c1 [Compound I-49, 1-(3-methoxyphenyl)-6-((2-methylpyrimidin-4-yl)amino)-1,2-dihydro-3H-pyrazolo[4,3-c]pyridin-3-one]",< 10,> 90000,> 90,> 90,< 10,> 90,> 90,> 90000
"Cc1cc(Nc2cc3c(cn2)c(=O)[nH]n3-c2cccc(F)c2)nc(C)n1 [Compound I-59, 6-((2,6-dimethylpyrimidin-4-yl)amino)-1-(3-fluorophenyl)-1,2-dihydro-3H-pyrazolo[4,3-c]pyridin-3-one]",< 10,> 90000,> 90,> 90,< 10,> 90,> 90,> 90000
"Cc1cc(Nc2cc3c(cn2)c(=O)[nH]n3-c2ccc(Cl)cc2)nc(C)n1 [Compound I-65, 1-(4-chlorophenyl)-6-((2,6-dimethylpyrimidin-4-yl)amino)-1,2-dihydro-3H-pyrazolo[4,3-c]pyridin-3-one]",> 90,> 90000,> 90,> 90,< 10,> 90,> 90,> 90000
"Cc1cc(Nc2cc3c(cn2)c(=O)[nH]n3-c2ccc(OC(F)(F)F)cc2)nc(C)n1 [Compound I-69, 6-((2,6-dimethylpyrimidin-4-yl)amino)-1-(4-(trifluoromethoxy)phenyl)-1,2-dihydro-3H-pyrazolo[4,3-c]pyridin-3-one]",< 10,> 90000,> 90,> 90,< 10,> 90,> 90,> 90000
"Cc1cc(Nc2cc3c(cn2)c(=O)[nH]n3-c2ccc(OC(F)F)cc2)nc(C)n1 [Compound I-72, 1-(4-(difluoromethoxy)phenyl)-6-((2,6-dimethylpyrimidin-4-yl)amino)-1,2-dihydro-3H-pyrazolo[4,3-c]pyridin-3-one]",< 10,> 90000,> 90,> 90,< 10,> 90,> 90,> 90000
"Cc1cc(Nc2cc3c(cn2)c(=O)[nH]n3-c2ccc(OCC(F)(F)F)cc2)nc(C)n1 [Compound I-73, 6-((2,6-dimethylpyrimidin-4-yl)amino)-1-(4-(2,2,2-trifluoroethoxy)phenyl)-1,2-dihydro-3H-pyrazolo[4,3-c]pyridin-3-one]",< 10,> 90000,> 90,> 90,< 10,> 90,> 90,> 90000
"N#Cc1ccc(-n2[nH]c(=O)c3cnc(Nc4ccc(F)cn4)cc32)cc1Cl [Compound I-88, 2-chloro-4-(6-((5-fluoropyridin-2-yl)amino)-3-oxo-2,3-dihydro-1H-pyrazolo[4,3-c]pyridin-1-yl)benzonitrile]",< 10,> 90000,> 90,> 90,< 10,> 90,> 90,> 90000
"Cc1cc(Nc2cc3c(cn2)c(=O)[nH]n3-c2ccc(OC(F)(F)F)c(F)c2)nc(C)n1 [Compound I-94, 6-((2,6-dimethylpyrimidin-4-yl)amino)-1-(3-fluoro-4-(trifluoromethoxy)phenyl)-1,2-dihydro-3H-pyrazolo[4,3-c]pyridin-3-one]",< 10,> 90000,> 90,> 90,< 10,> 90,> 90,> 90000
"COc1cccc(-n2[nH]c(=O)c3c(N)nc(Nc4cc(C)nc(C)n4)cc32)c1 [Compound I-116, 4-amino-6-((2,6-dimethylpyrimidin-4-yl)amino)-1-(3-methoxyphenyl)-1,2-dihydro-3H-pyrazolo[4,3-c]pyridin-3-one]",30 to 90,–,–,–,< 10,–,–,–
"Cc1cc(Nc2cc3c(cn2)c(=O)[nH]n3-c2cccc(CO)c2)nc(C)n1 [Compound I-117, 6-((2,6-dimethylpyrimidin-4-yl)amino)-1-(3-(hydroxymethyl)phenyl)-1,2-dihydro-3H-pyrazolo[4,3-c]pyridin-3-one]",10 to 30,–,–,–,< 10,–,–,–
"Cc1cc(Nc2cc3c(cn2)c(=O)[nH]n3-c2cccc(C(=O)NCc3ccccn3)c2)nc(C)n1 [Compound I-118, 3-(6-((2,6-dimethylpyrimidin-4-yl)amino)-3-oxo-2,3-dihydro-1H-pyrazolo[4,3-c]pyridin-1-yl)-N-(pyridin-2-ylmethyl)benzamide]",> 90,–,–,–,< 10,–,–,–
"Cc1cc(Nc2cc3c(cn2)c(=O)[nH]n3-c2ccc3cn(C)nc3c2)nc(C)n1 [Compound I-121, 6-((2,6-dimethylpyrimidin-4-yl)amino)-1-(2-methyl-2H-indazol-6-yl)-1,2-dihydro-3H-pyrazolo[4,3-c]pyridin-3-one]",< 10,–,–,–,< 10,–,–,–
"Cn1cc2ccc(-n3[nH]c(=O)c4cnc(Nc5ccc(F)cn5)cc43)cc2n1 [Compound I-122, 6-((5-fluoropyridin-2-yl)amino)-1-(2-methyl-2H-indazol-6-yl)-1,2-dihydro-3H-pyrazolo[4,3-c]pyridin-3-one]",< 10,–,–,–,< 10,–,–,–
"CNC(=O)Nc1cc2c(cn1)c(=O)[nH]n2-c1ccccc1 [Compound I-125, 1-methyl-3-(3-oxo-1-phenyl-2,3-dihydro-1H-pyrazolo[4,3-c]pyridin-6-yl)urea]",30 to 90,–,–,–,< 10,–,–,–
"COC(=O)Nc1cc2c(cn1)c(=O)[nH]n2-c1ccccc1 [Compound I-126, methyl (3-oxo-1-phenyl-2,3-dihydro-1H-pyrazolo[4,3-c]pyridin-6-yl)carbamate]",> 90,–,–,–,< 10,–,–,–
